Assay results from article PMC6479541, “Target Proteins of Phloretin for Its Anti-Inflammatory and Antibacterial Activities Against Propionibacterium acnes-Induced Skin Infection” (Molecules, 2019).

Assays:
[1] = target: T1, P. acnes β-ketoacyl acyl carrier protein (ACP) synthase III (KAS III) (Cutibacterium acnes, UniProt P0DW99); type: biochemical
T1 construct: gene fabH; wild-type P. acnes KAS III
T1 sequence (P0DW99 1-332): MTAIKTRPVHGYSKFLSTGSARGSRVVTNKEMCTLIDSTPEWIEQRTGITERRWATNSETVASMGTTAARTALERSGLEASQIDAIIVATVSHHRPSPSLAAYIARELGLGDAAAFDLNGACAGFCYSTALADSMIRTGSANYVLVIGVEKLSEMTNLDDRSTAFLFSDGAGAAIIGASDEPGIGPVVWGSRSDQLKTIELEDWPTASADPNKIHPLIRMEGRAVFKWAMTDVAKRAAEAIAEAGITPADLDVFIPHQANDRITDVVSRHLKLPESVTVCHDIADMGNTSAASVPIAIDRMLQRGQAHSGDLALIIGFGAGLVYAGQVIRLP

JNK1 = target: T2, JNK1 (Homo sapiens, UniProt P45983); test: tryptophan fluorescence quenching titration with purified protein; type: binding
T2 construct: gene MAPK8; C-terminal truncated form of human JNK1α1 (residues 1–364), C-terminal 6His tag
T2 sequence (P45983 1-364): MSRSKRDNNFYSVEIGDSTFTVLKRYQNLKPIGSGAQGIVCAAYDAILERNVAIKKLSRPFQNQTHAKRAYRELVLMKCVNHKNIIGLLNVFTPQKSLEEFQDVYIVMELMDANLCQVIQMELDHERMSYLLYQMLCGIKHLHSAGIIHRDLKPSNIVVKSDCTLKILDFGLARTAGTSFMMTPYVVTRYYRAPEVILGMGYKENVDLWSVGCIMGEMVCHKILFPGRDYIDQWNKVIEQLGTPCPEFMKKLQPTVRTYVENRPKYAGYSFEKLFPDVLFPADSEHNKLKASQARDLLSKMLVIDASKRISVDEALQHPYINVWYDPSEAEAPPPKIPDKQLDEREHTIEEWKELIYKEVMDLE

Question: What does the source list for `O=C(CCc1ccc(O)cc1)c1c(O)cc(O)cc1O` [Phloretin, 3-(4-hydroxyphenyl)-1-(2,4,6-trihydroxyphenyl)-1-propanone]?
Answer: % reduction of product [1]: > 66 % reduction of product; Kd (JNK1): 11.8 µM
